20 compounds from ChEMBL document CHEMBL6103624, “Design, Synthesis, and Biological Evaluation of Marchantin C-NO Donor Hybrids for Overcoming Pgp-Mediated Drug Resistance by Targeting Lysosome” (J Med Chem, 2025) can be followed below.

One data set deals with NCI/ADR-RES. The experiment in a line: Antiproliferative activity against human MCF7ADR cells assessed as inhibition of cell growth incubated for 48 hrs by MTT assay. It counts as functional, cell-based.
The test system of another data set is MCF7. The data set is described as follows: Antiproliferative activity against human MCF7 cells assessed as inhibition of cell growth incubated for 48 hrs by MTT assay. In kind it is functional, cell-based. Particulars: MCF7, 48 h.
Another data set has as its system A549. The data set is described as follows: Antiproliferative activity against human A549 cells assessed as inhibition of cell growth incubated for 48 hrs by MTT assay. Particulars: A549, 48 h. It counts as functional, cell-based.
The next data set deals with HepG2. The data set is described as follows: Antiproliferative activity against human HepG2 cells assessed as inhibition of cell growth incubated for 48 hrs by MTT assay. It counts as functional, cell-based. Particulars: HepG2, 48 h.
In the next data set the test system is PC-3. The data set is described as follows: Antiproliferative activity against human PC-3 cells assessed as inhibition of cell growth incubated for 48 hrs by MTT assay. Particulars: PC-3, 48 h. It counts as functional, cell-based.
Data set [1] is described as follows: Selectivity index, ratio of IC50 for antiproliferative activity against human MCF7 cells assessed as inhibition of cell growth to IC50 for antiproliferative activity against human MCF7ADR cells assessed as inhibition of cell growth. In kind it is functional.
Data set [2] can be described thus: Selectivity index, ratio of IC50 for antiproliferative activity against human A549 cells assessed as inhibition of cell growth to IC50 for antiproliferative activity against human A549/Taxol cells assessed as inhibition of cell growth. It counts as functional.
For a further data set, the system named is A549/TR. The experiment in a line: Antiproliferative activity against human A549/Taxol cells assessed as inhibition of cell growth incubated for 48 hrs by MTT assay. It counts as functional, cell-based.
Data set [3] is described as follows: Cytotoxicity against human BEAS-2B cells assessed as inhibition of cell growth incubated for 48 hrs by MTT assay. It counts as toxicity, cell-based.

Take `O=[N+]([O-])OCC(COc1ccc2cc1Oc1ccc(cc1)CCc1cccc(OCC(CO[N+](=O)[O-])O[N+](=O)[O-])c1Oc1cccc(c1)CC2)O[N+](=O)[O-]` (configuration not stated): the IC50 in the data set on NCI/ADR-RES was > 20 µM; in the data set on MCF7 it was > 20 µM; in the data set on A549, > 40 µM; in the data set with HepG2, > 20 µM; in the data set on PC-3, > 20 µM.
With `O=S(=O)(c1ccccc1)c1c(OC/C=C\COc2ccc3cc2Oc2ccc(cc2)CCc2cccc(OC/C=C\COc4no[n+]([O-])c4S(=O)(=O)c4ccccc4)c2Oc2cccc(c2)CC3)no[n+]1[O-]`, the IC50 in the data set with NCI/ADR-RES was > 3 µM; in the data set on MCF7, > 20 µM. Further, the “Ratio IC50” value in data set [1] is given as <7.
As for `CO/N=[N+](\[O-])N1CCN(Cc2ccc3c(c2O)Oc2cccc(c2)CCc2ccc(O)c(c2)Oc2ccc(cc2)CC3)CC1`, the IC50 in the data set on A549 was > 40 µM; in the data set on HepG2, > 20 µM; in the data set with PC-3, > 20 µM.
For `O=S(=O)(c1ccccc1)c1c(OCCCOc2ccc3cc2Oc2ccc(cc2)CCc2cccc(OCCCOc4no[n+]([O-])c4S(=O)(=O)c4ccccc4)c2Oc2cccc(c2)CC3)no[n+]1[O-]`, the “Ratio IC50” value in data set [2] turned out to be 4; in data set [1] it was 21. In addition, the IC50 with NCI/ADR-RES was 1 µM; with MCF7 it was 21 µM; in the data set with A549 it was 38.4 µM; in the data set on A549/TR, 10.2 µM; with HepG2, > 20 µM; in the data set with PC-3 it was > 20 µM.
Turning to `O=C(/N=c1/c[n+](-c2ccccc2)[n-]o1)Oc1ccc2cc1Oc1ccc(cc1)CCc1cccc(OC(=O)/N=c3/c[n+](-c4ccccc4)[n-]o3)c1Oc1cccc(c1)CC2`, the IC50 in the data set with A549 is > 40 µM; in the data set with HepG2 it was > 20 µM; in the data set with PC-3, > 20 µM.
Take `O=C(CCCCCOc1no[n+]([O-])c1S(=O)(=O)c1ccccc1)Oc1cccc2c1Oc1cccc(c1)CCc1ccc(O)c(c1)Oc1ccc(cc1)CC2`: the IC50 in the data set on A549 was > 40 µM; with HepG2, > 20 µM; in the data set on PC-3 it was > 20 µM.
On to `O=S(=O)(c1ccccc1)c1c(OCCCOc2ccc3cc2Oc2ccc(cc2)CCc2cccc(O)c2Oc2cccc(c2)CC3)no[n+]1[O-]`, for which the “Ratio IC50” value in data set [2] is 7; in data set [1] it was 35. Besides, the IC50 in the data set with NCI/ADR-RES is 0.24 µM; in the data set on MCF7, 8.5 µM; with A549, 33.6 µM; in the data set with A549/TR it was 4.79 µM; in the data set on PC-3, 1.2 µM. The IC50 at 48 h in data set [3] was < 2.5 µM.
Take `O=S(=O)(c1ccccc1)c1c(OCCOc2ccc3cc2Oc2ccc(cc2)CCc2cccc(OCCOc4no[n+]([O-])c4S(=O)(=O)c4ccccc4)c2Oc2cccc(c2)CC3)no[n+]1[O-]`: the results for the “Ratio IC50” value in [2] and in [1] were 4 and 8, respectively. Further, the IC50 in the data set on NCI/ADR-RES is 3.2 µM; with MCF7, 24.9 µM; in the data set on A549, 41.2 µM; in the data set on A549/TR, 11.5 µM; in the data set on HepG2, > 20 µM; in the data set on PC-3, > 20 µM.
Turning to `O=C(/C=C\COc1no[n+]([O-])c1S(=O)(=O)c1ccccc1)Oc1cccc2c1Oc1cccc(c1)CCc1ccc(O)c(c1)Oc1ccc(cc1)CC2`, the IC50 in the data set on NCI/ADR-RES is > 3 µM; in the data set on MCF7 it was 13.7 µM; in the data set on A549, > 40 µM; in the data set on A549/TR it was > 20 µM; in the data set on HepG2 it was 6.46 µM; in the data set on PC-3, > 20 µM. In data set [1], the “Ratio IC50” value is <5.
With `O=S(=O)(c1ccccc1)c1c(OCCCCOc2ccc3cc2Oc2ccc(cc2)CCc2cccc(OCCCCOc4no[n+]([O-])c4S(=O)(=O)c4ccccc4)c2Oc2cccc(c2)CC3)no[n+]1[O-]`, the IC50 in the data set with NCI/ADR-RES was > 3 µM; with MCF7, > 20 µM; in the data set on A549, > 40 µM; with A549/TR, > 20 µM; in the data set on HepG2, > 20 µM; in the data set with PC-3 it was > 20 µM. Further, the “Ratio IC50” value in data set [1] is reported as <7.
`CCO/N=[N+](\[O-])N1CCN(Cc2ccc3c(c2O)Oc2cccc(c2)CCc2ccc(O)c(c2)Oc2ccc(cc2)CC3)CC1`: the IC50 in the data set with A549 was > 40 µM; in the data set on HepG2, > 20 µM; in the data set on PC-3 it was > 20 µM.
For the compound `O=C(CCCOc1no[n+]([O-])c1S(=O)(=O)c1ccccc1)Oc1ccc2cc1Oc1ccc(cc1)CCc1cccc(OC(=O)CCCOc3no[n+]([O-])c3S(=O)(=O)c3ccccc3)c1Oc1cccc(c1)CC2`, the “Ratio IC50” value in data set [2] was determined as 3; in [1] it was 22. The IC50 in the data set with NCI/ADR-RES is 0.68 µM; in the data set with MCF7, 15.2 µM; in the data set on A549, 39.5 µM; in the data set with A549/TR, 15.1 µM; in the data set on HepG2, > 20 µM; in the data set with PC-3 it was > 20 µM.
As for `O=S(=O)(c1ccccc1)c1c(OC/C=C\COc2cccc3c2Oc2cccc(c2)CCc2ccc(O)c(c2)Oc2ccc(cc2)CC3)no[n+]1[O-]`, the IC50 in the data set with NCI/ADR-RES is > 3 µM; in the data set with MCF7 it was > 20 µM; in the data set on A549, > 40 µM; with A549/TR, > 20 µM. Further, the “Ratio IC50” value in data set [1] is <7.
Consider `O=S(=O)(c1ccccc1)c1c(OCCOc2ccc3cc2Oc2ccc(cc2)CCc2cccc(O)c2Oc2cccc(c2)CC3)no[n+]1[O-]`, for which the “Ratio IC50” value in data set [2] worked out at 3; in data set [1], 55. The IC50 in the data set on NCI/ADR-RES is 0.2 µM; in the data set with MCF7, 10.9 µM; with A549, 15.2 µM; with A549/TR it was 5.36 µM; with PC-3, 2.69 µM.
On to `O=C(CCCOc1no[n+]([O-])c1S(=O)(=O)c1ccccc1)Oc1cccc2c1Oc1cccc(c1)CCc1ccc(O)c(c1)Oc1ccc(cc1)CC2`, for which the values for the IC50 in the data set on A549, with HepG2 and in the data set with PC-3 were > 40 µM, > 20 µM and > 20 µM, respectively.
For `O=C(/C=C\COc1no[n+]([O-])c1S(=O)(=O)c1ccccc1)Oc1ccc2cc1Oc1ccc(cc1)CCc1cccc(OC(=O)/C=C\COc3no[n+]([O-])c3S(=O)(=O)c3ccccc3)c1Oc1cccc(c1)CC2`, the IC50 with A549 was > 40 µM; with HepG2 it was > 20 µM; in the data set on PC-3 it was > 20 µM.
For the compound `O=C(CCCCCOc1no[n+]([O-])c1S(=O)(=O)c1ccccc1)Oc1ccc2cc1Oc1ccc(cc1)CCc1cccc(OC(=O)CCCCCOc3no[n+]([O-])c3S(=O)(=O)c3ccccc3)c1Oc1cccc(c1)CC2`, the IC50 in the data set on NCI/ADR-RES was > 3 µM; in the data set on MCF7 it was > 20 µM; with A549 it was > 40 µM; in the data set with A549/TR, > 20 µM; in the data set on HepG2, > 20 µM; in the data set on PC-3 it was > 20 µM. Besides, the “Ratio IC50” value in [1] is <7.
On to `O=S(=O)(c1ccccc1)c1c(OCCCCCCOc2ccc3cc2Oc2ccc(cc2)CCc2cccc(OCCCCCCOc4no[n+]([O-])c4S(=O)(=O)c4ccccc4)c2Oc2cccc(c2)CC3)no[n+]1[O-]`, for which the IC50 in the data set with NCI/ADR-RES is > 3 µM; in the data set on MCF7, 27.8 µM; in the data set on A549 it was > 40 µM; in the data set on A549/TR it was > 20 µM; in the data set with HepG2, > 20 µM; in the data set with PC-3 it was > 20 µM. Also, the “Ratio IC50” value in data set [1] is <9.
With `O=S(=O)(c1ccccc1)c1c(Oc2ccc(COc3cccc4c3Oc3cccc(c3)CCc3ccc(O)c(c3)Oc3ccc(cc3)CC4)cc2)no[n+]1[O-]`, the IC50 was > 3 µM in the data set on NCI/ADR-RES; > 20 µM in the data set on MCF7; > 40 µM in the data set with A549; > 20 µM in the data set with HepG2; > 20 µM in the data set on PC-3. In addition, the “Ratio IC50” value in data set [1] is listed as <7.
In the case of `CC(=O)CCCCn1c(=O)c2c(ncn2C)n(C)c1=O` [PENTOXIFYLLINE], in data set [2], the “Ratio IC50” value is on record as <0.5. The values for the IC50 with A549 and in the data set on A549/TR were 11 µM and > 20 µM, respectively.
